# Source: US4898943A, “Tricyclic triazolopyrimidine derivatives” (Daiichi Seiyaku Co., Ltd., priority 1987, dated 1990)
# Experiments:
# PCA reaction = test: PCA test (48-hour passive cutaneous anaphylaxis), oral administration; type: in vivo; settings: Rattus norvegicus, 10 mg/kg orally, 30 minutes before antigen challenge, male Sprague-Dawley rats
# Procedure: Each of Sprague-Dawley female rats weighing 170 to 250 g (CRJ-CD(SD), Charles River Japan Inc.) was intramuscularly administered with 5 mg/kg-body weight of egg albumin dissolved in saline, and then 1 ml of a suspension of Bordetella pertussis vaccine (2×10^10 organism) in saline was administered intraperitoneally to the rat. On day 10, 3,000 larvae animal of Nippostrongylus brasiliensis were subcutaneously administered to the rats. On day 24, blood was drawn from the rats to obtain an antiserum.
# The antiserum was diluted with saline so as to provide a blue spot having a diameter of about 10 mm in the following control group.
# Male sprague-Dawley rats weighing about 180 g (5 rats per group) were sensitized by injecting 0.05 ml of the diluted antiserum into the shaved dorsal skin. Fourty-eight hours later, 1 ml of saline containing 0.5% Evans blue and 5 mg of egg albumin was administered to each of the rats via a tail vein. After 30 minutes, the rats were sacrificed by decapitation. The dorsal skin was removed, and the amount of the dye in the blue spot area was measured in accordance with the method of Katayama et al., Microbiol. Immunol., Vol. 22, 89-101 (1978).
# Ten milligrams of the test compound was suspended in 5 ml of a 0.5% CMC aqueous solution, and the suspension was orally administered to each of the rats in an amount of 10 mg/kg 30 minutes before the antigen challenge. On the other hand, a control group received only a 0.5% CMC solution.
# The inhibitory activity on the PCA reaction in the treated group was calculated by the following equation: [formula] wherein V represents a mean value of the dye amount in the blue spot area in the control group; and W represents a mean value of the dye amount in the blue spot area in the treated group.
# Acute toxicity test = settings: mouse, in vivo, po; p.o. in mice
Structure (SMILES),inhibition at 10 mg/kg (PCA reaction),LD50 (Acute toxicity test)
O=c1c2[nH]nnc2nc2sc(CC3CCCCC3)nn12 [Example 4],77%,–
O=c1c2[nH]nnc2nc2sc(CCC3CCCC3)nn12 [Example 2],62%,2000 to 4000 mg/kg
O=c1c2[nH]nnc2nc2sc(CCCC3CCCCC3)nn12 [Example 5],–,> 4000 mg/kg
O=c1c2[nH]nnc2nc2sc(CCCC3CCCC3)nn12 [Example 3],91%,> 4000 mg/kg
"O=c1c2[nH]nnc2nc2sc(CCC3CCCCC3)nn12 [Example 1, 6-(2-Cyclohexylethyl)-[1,3,4]thiadiazolo-[3,2-a][1,2,3]triazolo[4,5-d]pyrimidin-9-(1H)-one]",81%,> 4000 mg/kg
O=c1c2[nH]nnc2nc2sc(CCC3CCCCCC3)nn12 [Example 9],88%,> 4000 mg/kg
